Tests used:
giant foxtail = assay: Test C pre-/postemergence herbicide test; format: in vivo, Setaria faberi; settings: preemergence
How it was run: (§1)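 Pre/post spray; non-phytotoxic solvent + surfactant. Post-timing 1–4 leaves, 2–18 cm. Read-out: visual % control vs untreated, day 12–14, greenhouse.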

[1] = system: common (oilseed) sunflower; assay: Test C pre-/postemergence herbicide test; format: in vivo, Helianthus annuus; settings: preemergence
How it was run: as §1

johnsongrass = assay: Test C pre-/postemergence herbicide test; format: in vivo, Sorghum halepense; settings: preemergence
How it was run: as §1

ducksalad = assay: Test B flooded paddy test; format: in vivo, Heteranthera limosa; settings: 1000 g ai/ha, scale 0 to 100 (0 no effect, 100 complete control)
How it was run: (§2)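 Scale 0–100: zero equals no visible effect, 100 complete control, judged by eye relative to controls. Timing: 13 to 15 days in greenhouse post-treatment. Growth stage at spraying: two leaves (paddy) or one to four leaves, 2–18 cm (postemergence).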

rice = assay: Test C flooded paddy test; format: in vivo, Oryza sativa; settings: for Plant response rating, Rice: 500 g ai/ha, visual rating after 12 to 14 days
How it was run: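 Injury scored visually against controls on a 0 (no effect) to 100 (complete control) scale, 12 to 14 days after treatment in greenhouse. Flooded paddy plants treated at 2-leaf stage; postemergence plants at 1- to 4-leaf stage, 2 to 18 cm tall.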

common ragweed = assay: Test C pre-/postemergence herbicide test; format: in vivo, Ambrosia elatior; parameters: key to Plant response rating, Ragweed: 0 = no effect, 100 = complete control; settings: preemergence
How it was run: as §1

blackgrass = assay: Test B postemergence herbicide test; format: in vivo, Alopecurus myosuroides; settings: postemergence
How it was run: as §2

cocklebur = assay: Test C pre-/postemergence herbicide test; format: in vivo, Xanthium strumarium; settings: preemergence
How it was run: as §1

[2] = 500 g ai/ha, scale 0 to 100 (0 no effect, 100 complete control), visual, 12 to 14 days
[3] = 125 g ai/ha, scale 0 to 100 (0 no effect, 100 complete control)
[4] = 250 g ai/ha, scale of 0 to 100, 0 is no effect, 100 is complete control
[5] = scale 0 to 100 (0 no effect, 100 complete control)
[6] = 125 g ai/ha, visual rating, scale 0 (no effect) to 100 (complete control)
[7] = 500 g ai/ha, scale 0 to 100, 0 is no effect, 100 is complete control
[8] = 125 g ai/ha, scale 0 (no effect) to 100 (complete control), visual, 12 to 14 days

CCC1=NN(C(C)(C)C)CC1C(=O)Nc1cc(C(=O)N(C)C)ccc1F (racemic) [Compound 343]
Plant response rating, Foxtail, Giant (giant foxtail; 62 g ai/ha, scale 0 to 100): 40
Plant response rating (0 = no effect, 100 = complete control), Foxtail, Giant (giant foxtail; 125 g ai/ha): 50
Plant response rating, Foxtail, Giant (giant foxtail; 250 g ai/ha, scale 0-100): 70
Plant response rating, Foxtail, Giant (giant foxtail; [2]): 80
Plant response rating, Sunflower ([1]; 62 g ai/ha, scale 0 to 100): 10
Plant response rating (0 = no effect, 100 = complete control), Sunflower ([1]; 125 g ai/ha): 75
Plant response rating, Sunflower ([1]; 250 g ai/ha, scale 0-100): 80
Plant response rating, Sunflower [1, 2]: 100
Plant response rating, Johnsongrass (johnsongrass; 62 g ai/ha, scale 0 to 100): 70
Plant response rating (0 = no effect, 100 = complete control), Johnsongrass (johnsongrass; 125 g ai/ha): 80
Plant response rating, Johnsongrass (johnsongrass; 250 g ai/ha, scale 0-100): 100
Plant response rating, Johnsongrass (johnsongrass; [2]): 100
Ducksalad plant response rating (ducksalad): 90
Rice plant response rating (rice; 62 g ai/ha, scale 0 to 100): 20
Rice plant response rating (rice; [3]): 50
Rice plant response rating (rice; [4]): 70
Plant response rating, Rice (rice; [5]): 80
Plant response rating, Ragweed (common ragweed; 62 g ai/ha, scale 0 to 100): 70
Plant response rating (0 = no effect, 100 = complete control), Ragweed (common ragweed; 125 g ai/ha): 90
Plant response rating, Ragweed (common ragweed; 250 g ai/ha, scale 0-100): 90
Plant response rating, Ragweed (common ragweed; [2]): 100
Blackgrass plant response rating (blackgrass; [6]): 0
Blackgrass plant response rating (blackgrass; [7]): 10
Plant response rating, Cocklebur (cocklebur; 62 g ai/ha, scale 0 to 100): 30
Plant response rating (0 = no effect, 100 = complete control), Cocklebur (cocklebur; 125 g ai/ha): 80
Plant response rating, Cocklebur (cocklebur; 250 g ai/ha, scale 0-100): 80
Plant response rating, Cocklebur (cocklebur; [2]): 100

CCn1nc(C(C)(C)C)cc1C(=O)Nc1cc(C(=S)N(C)C)ccn1 [Compound 334]
Plant response rating, Foxtail, Giant (giant foxtail; 62 g ai/ha, scale 0 to 100): 60
Plant response rating, Foxtail, Giant (giant foxtail; [8]): 80
Plant response rating, Foxtail, Giant (giant foxtail; 250 g ai/ha, scale 0-100): 100
Plant response rating, Sunflower ([1]; 62 g ai/ha, scale 0 to 100): 5
Plant response rating, Sunflower ([1]; 250 g ai/ha, scale 0-100): 55
Plant response rating, Johnsongrass (johnsongrass; 62 g ai/ha, scale 0 to 100): 90
Plant response rating, Johnsongrass (johnsongrass; [8]): 100
Plant response rating, Johnsongrass (johnsongrass; 250 g ai/ha, scale 0-100): 100
Ducksalad plant response rating (ducksalad): 90
Rice plant response rating (rice; 62 g ai/ha, scale 0 to 100): 70
Rice plant response rating (rice; [3]): 75
Rice plant response rating (rice; [4]): 80
Plant response rating, Rice (rice; [5]): 85
Plant response rating, Ragweed (common ragweed; 62 g ai/ha, scale 0 to 100): 75
Plant response rating, Ragweed (common ragweed; 250 g ai/ha, scale 0-100): 100
Blackgrass plant response rating (blackgrass; [6]): 30
Blackgrass plant response rating (blackgrass; [7]): 70
Plant response rating, Cocklebur (cocklebur; 62 g ai/ha, scale 0 to 100): 30
Plant response rating, Cocklebur (cocklebur; [8]): 60
Plant response rating, Cocklebur (cocklebur; 250 g ai/ha, scale 0-100): 70

Reference: US20060069132A1, “Azolecarboxamide herbicides” (priority 2004, published 2006)
